Columns and labels:
[1] = molecular target: Adenosine A2B (ADORA2B) receptor (Homo sapiens (Human), UniProt P29275); assay: ADORA2B Receptor Binding Assay; conditions: radioligand binding, membrane stock
In short: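 Radioligand competition binding on human A2B receptor membranes, 1 h at room temperature, then filtration through BSA-presoaked GF/C filters and ³H counting by scintillation. Inhibition expressed as % of high control after background subtraction.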

[2] = molecular target: Adenosine A2a (ADORA2A) receptor (Homo sapiens (Human), UniProt P29274); assay: ADORA2A Receptor Binding Assay; conditions: radioligand binding, membrane stock
In short: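 Test compounds incubated with A2a receptor membranes and a ³H-labelled radioligand for 2 hours at room temperature, then filtered through PEI-presoaked GF/C plates and washed. Filter-bound ³H counted by scintillation; % inhibition calculated from background-subtracted signal relative to high control.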

Adenosine A2B (ADORA2B) receptor, sequence (P29275 whole entry): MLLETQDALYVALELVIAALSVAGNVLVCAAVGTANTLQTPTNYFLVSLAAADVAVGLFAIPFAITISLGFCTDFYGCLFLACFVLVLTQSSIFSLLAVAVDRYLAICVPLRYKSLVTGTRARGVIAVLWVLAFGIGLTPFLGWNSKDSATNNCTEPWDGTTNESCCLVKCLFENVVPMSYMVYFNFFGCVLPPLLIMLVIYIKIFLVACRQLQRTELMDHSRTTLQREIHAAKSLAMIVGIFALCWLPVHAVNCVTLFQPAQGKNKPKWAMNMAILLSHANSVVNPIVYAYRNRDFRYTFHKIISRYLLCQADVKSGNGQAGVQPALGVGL
Adenosine A2a (ADORA2A) receptor, sequence (P29274 whole entry): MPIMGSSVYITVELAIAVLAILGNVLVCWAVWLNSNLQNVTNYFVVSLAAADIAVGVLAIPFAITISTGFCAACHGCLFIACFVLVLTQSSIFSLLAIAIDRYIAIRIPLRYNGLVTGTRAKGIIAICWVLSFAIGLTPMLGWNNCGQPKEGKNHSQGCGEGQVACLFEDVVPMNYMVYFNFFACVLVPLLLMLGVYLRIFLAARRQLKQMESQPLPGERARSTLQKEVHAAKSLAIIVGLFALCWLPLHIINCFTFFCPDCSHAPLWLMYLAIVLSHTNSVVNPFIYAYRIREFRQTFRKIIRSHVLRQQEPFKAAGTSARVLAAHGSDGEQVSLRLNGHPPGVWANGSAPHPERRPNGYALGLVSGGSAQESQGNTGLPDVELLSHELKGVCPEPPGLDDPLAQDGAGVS

| SMILES | IC50 [1] | IC50 [2] |
| --- | --- | --- |
| CC(=O)Nc1cc2nc(C)nn2c(-c2ccc(S(C)(=O)=O)cc2)n1 [Compound 101, N-[2-methyl-5-(4-methylsulfonylphenyl)-[1,2,4]triazolo[1,5-c]pyrimidin-7-yl]acetamide] | > 1000 nM | > 1000 nM |
| Cc1nc2c3cc[nH]c3nc(-c3ccc(C)o3)n2n1 [Compound 35, 4-methyl-7-(5-methylfuran-2-yl)-3,5,6,8,10-pentazatricyclo[7.3.0.0^2,6]dodeca-1(9),2,4,7,11-pentaene] | < 10 nM | < 10 nM |
| Cc1cc2c(nc(-c3ccco3)n3nc(C(F)(F)F)nc23)[nH]1 [Compound 82, 7-(furan-2-yl)-11-methyl-4-(trifluoromethyl)-3,5,6,8,10-pentazatricyclo[7.3.0.0^2,6]dodeca-1(9),2,4,7,11-pentaene] | < 10 nM | < 10 nM |
| Cc1nc2c3cc(C)[nH]c3nc(-c3ccc(C)o3)n2n1 [Compound 45, 4,11-dimethyl-7-(5-methylfuran-2-yl)-3,5,6,8,10-pentazatricyclo[7.3.0.0^2,6]dodeca-1(9),2,4,7,11-pentaene] | < 10 nM | < 10 nM |
| Cc1nc2cc(NC(=O)C3CC3)nc(-c3ccc(C(C)(C)C)o3)n2n1 [Compound 43, N-[5-(5-tert-butylfuran-2-yl)-2-methyl-[1,2,4]triazolo[1,5-c]pyrimidin-7-yl]cyclopropanecarboxamide] | > 1000 nM | 10 to 100 nM |
| Cc1ccc(-c2nc(NC(=O)C3CC3)cc3nc(C4CCC4)nn23)o1 [Compound 64, N-[2-cyclobutyl-5-(5-methylfuran-2-yl)-[1,2,4]triazolo[1,5-c]pyrimidin-7-yl]cyclopropanecarboxamide] | 10 to 100 nM | < 10 nM |
| Cc1nc2cc(NC(=O)NC(C)C)nc(-c3ccco3)n2n1 [Compound 163, 1-[5-(furan-2-yl)-2-methyl-[1,2,4]triazolo[1,5-c]pyrimidin-7-yl]-3-propan-2-ylurea] | 10 to 100 nM | < 10 nM |
| Cc1nc2c(Cl)c(N)nc(-c3ccc(C)s3)n2n1 [Compound 40, 8-chloro-2-methyl-5-(5-methylthiophen-2-yl)-[1,2,4]triazolo[1,5-c]pyrimidin-7-amine] | < 10 nM | < 10 nM |
| Cc1nc2c(Cl)c(N(C)C)nc(-c3ccc(C)o3)n2n1 [Compound 24, 8-chloro-N,N,2-trimethyl-5-(5-methylfuran-2-yl)-[1,2,4]triazolo[1,5-c]pyrimidin-7-amine] | > 1000 nM | > 1000 nM |
| Cc1nc2c(Cl)c(N)nc(-c3ccc(F)cc3)n2n1 [Compound 80, 8-chloro-5-(4-fluorophenyl)-2-methyl-[1,2,4]triazolo[1,5-c]pyrimidin-7-amine] | 100 to 1000 nM | 10 to 100 nM |
| Cc1cc2c(nc(-c3ccc(C)o3)n3nc(C(F)(F)F)nc23)[nH]1 [Compound 88, 11-methyl-7-(5-methylfuran-2-yl)-4-(trifluoromethyl)-3,5,6,8,10-pentazatricyclo[7.3.0.0^2,6]dodeca-1(9),2,4,7,11-pentaene] | < 10 nM | < 10 nM |
| Cc1ccc(-c2nc(NC(=O)C3CC3)cc3nc(C4CNC4)nn23)o1 [Compound 164, N-[2-(azetidin-3-yl)-5-(5-methylfuran-2-yl)-[1,2,4]triazolo[1,5-c]pyrimidin-7-yl]cyclopropanecarboxamide] | > 1000 nM | 10 to 100 nM |
| Cc1nc2c(nc(-c3ccc(C)o3)n3nc(C(C)C)nc23)[nH]1 [Compound 120, 2-methyl-5-(5-methylfuran-2-yl)-8-propan-2-yl-3H-[1,2,4]triazolo[5,1-f]purine] | 10 to 100 nM | < 10 nM |
| Cc1nc2cc(NC(=O)C3CC3)nc(-c3ccc(S(=O)(=O)O)cc3)n2n1 [Compound 125, 4-[7-(cyclopropanecarbonylamino)-2-methyl-[1,2,4]triazolo[1,5-c]pyrimidin-5-yl]benzenesulfonic acid] | > 1000 nM | > 1000 nM |
| Cc1ccc(-c2nc3c(c4nc(C(C)C)nn24)CC(=O)N3)o1 [Compound 98, 7-(5-methylfuran-2-yl)-4-propan-2-yl-3,5,6,8,10-pentazatricyclo[7.3.0.0^2,6]dodeca-1(9),2,4,7-tetraen-11-one] | 100 to 1000 nM | 10 to 100 nM |
| CC(=O)Nc1cc2nc(CF)nn2c(-c2ccco2)n1 [Compound 139, N-[2-(fluoromethyl)-5-(furan-2-yl)-[1,2,4]triazolo[1,5-c]pyrimidin-7-yl]acetamide] | 10 to 100 nM | < 10 nM |
| CNC(=O)Nc1cc2nc(C)nn2c(-c2ccc(F)c(F)c2)n1 [Compound 140, 1-[5-(3,4-difluorophenyl)-2-methyl-[1,2,4]triazolo[1,5-c]pyrimidin-7-yl]-3-methylurea] | 100 to 1000 nM | 10 to 100 nM |
| CC(=O)Nc1cc2nc(C3CN(C)C3)nn2c(-c2ccco2)n1 [Compound 151, N-[5-(furan-2-yl)-2-(1-methylazetidin-3-yl)-[1,2,4]triazolo[1,5-c]pyrimidin-7-yl]acetamide] | > 1000 nM | 10 to 100 nM |
| Cc1ccc(-c2nc(NC(=O)C3CC3)cc3nc(C(C)C)nn23)o1 [Compound 12, N-[5-(5-methylfuran-2-yl)-2-propan-2-yl-[1,2,4]triazolo[1,5-c]pyrimidin-7-yl]cyclopropanecarboxamide] | < 10 nM | < 10 nM |
| Nc1nc(-c2ccccc2)n2nc(CF)nc2c1Cl [Compound 138, 8-chloro-2-(fluoromethyl)-5-phenyl-[1,2,4]triazolo[1,5-c]pyrimidin-7-amine] | 10 to 100 nM | < 10 nM |
| CCC(=O)Nc1cc2nc(C)nn2c(-c2ccc(C)o2)n1 [Compound 5, N-[2-methyl-5-(5-methylfuran-2-yl)-[1,2,4]triazolo[1,5-c]pyrimidin-7-yl]propanamide] | 10 to 100 nM | < 10 nM |
| COc1ccc(-c2nc(NC(=O)C3CC3)cc3nc(C)nn23)cc1 [Compound 111, N-[5-(4-methoxyphenyl)-2-methyl-[1,2,4]triazolo[1,5-c]pyrimidin-7-yl]cyclopropanecarboxamide] | 10 to 100 nM | 10 to 100 nM |
| Cc1cc2c(nc(-c3ccco3)n3nc(C(C)C)nc23)[nH]1 [Compound 81, 7-(furan-2-yl)-11-methyl-4-propan-2-yl-3,5,6,8,10-pentazatricyclo[7.3.0.0^2,6]dodeca-1(9),2,4,7,11-pentaene] | 10 to 100 nM | < 10 nM |
| Cc1nc2cc(NC(=O)N3CCCC3)nc(-c3ccco3)n2n1 [Compound 103, N-[5-(furan-2-yl)-2-methyl-[1,2,4]triazolo[1,5-c]pyrimidin-7-yl]pyrrolidine-1-carboxamide] | 100 to 1000 nM | 10 to 100 nM |
| Cc1ccc(-c2nc(N)cc3nc(C(F)(F)F)nn23)o1 [Compound 21, 5-(5-methylfuran-2-yl)-2-(trifluoromethyl)-[1,2,4]triazolo[1,5-c]pyrimidin-7-amine] | 10 to 100 nM | < 10 nM |

Results, then the molecule that gave them:

| IC50 [1] | IC50 [2] | SMILES |
| --- | --- | --- |
| 100 to 1000 nM | 100 to 1000 nM | CCS(=O)(=O)Nc1cn2cc(C)nc2c(-c2ccco2)n1 [Compound 225, N-[8-(furan-2-yl)-2-methylimidazo[1,2-a]pyrazin-6-yl]ethanesulfonamide] |
| 10 to 100 nM | < 10 nM | Cc1cn2cc(NC(=O)C3CC3)nc(-c3ccco3)c2n1 [Compound 208, N-[8-(furan-2-yl)-2-methylimidazo[1,2-a]pyrazin-6-yl]cyclopropanecarboxamide] |
| < 10 nM | < 10 nM | Cc1ccc(-c2nc(NC(=O)C3CC3)cn3ncnc23)o1 [Compound 167, N-[8-(5-methylfuran-2-yl)-[1,2,4]triazolo[1,5-a]pyrazin-6-yl]cyclopropanecarboxamide] |
| 10 to 100 nM | < 10 nM | Cc1nc2c(-c3ccc(F)cc3)nc(N)c(Br)n2n1 [Compound 171, 5-bromo-8-(4-fluorophenyl)-2-methyl-[1,2,4]triazolo[1,5-a]pyrazin-6-amine] |
| 10 to 100 nM | < 10 nM | Cc1nc2c(-c3ccc(F)cc3)nc(N)c(Cl)n2n1 [Compound 170, 5-chloro-8-(4-fluorophenyl)-2-methyl-[1,2,4]triazolo[1,5-a]pyrazin-6-amine] |
| 100 to 1000 nM | 100 to 1000 nM | Cc1ccc(-c2nc(N)cn3ncnc23)o1 [Compound 166, 8-(5-methylfuran-2-yl)-[1,2,4]triazolo[1,5-a]pyrazin-6-amine] |
| < 10 nM | < 10 nM | CC(=O)Nc1cn2nc(C)nc2c(-c2ccc(C)o2)n1 [Compound 174, N-[2-methyl-8-(5-methylfuran-2-yl)-[1,2,4]triazolo[1,5-a]pyrazin-6-yl]acetamide] |
| 10 to 100 nM | < 10 nM | Cc1ccc(-c2nc(NC(=O)C3CC3)cn3cc(CF)nc23)o1 [Compound 210, N-[2-(fluoromethyl)-8-(5-methylfuran-2-yl)imidazo[1,2-a]pyrazin-6-yl]cyclopropanecarboxamide] |
| < 10 nM | < 10 nM | Cc1ccc(-c2nc(NC(=O)C3CC3)cn3nc(C(F)(F)F)nc23)o1 [Compound 189, N-[8-(5-methylfuran-2-yl)-2-(trifluoromethyl)-[1,2,4]triazolo[1,5-a]pyrazin-6-yl]cyclopropanecarboxamide] |
| < 10 nM | < 10 nM | Cc1nc2c(-c3ccccc3)nc(N)c(Br)n2n1 [Compound 172, 5-bromo-2-methyl-8-phenyl-[1,2,4]triazolo[1,5-a]pyrazin-6-amine] |
| 10 to 100 nM | < 10 nM | CCNC(=O)Nc1cn2cc(C)nc2c(-c2ccco2)n1 [Compound 223, 1-ethyl-3-[8-(furan-2-yl)-2-methylimidazo[1,2-a]pyrazin-6-yl]urea] |
| < 10 nM | < 10 nM | Cc1nc2c(-c3ccco3)nc(NC(=O)C3CC3)cn2n1 [Compound 180, N-[8-(furan-2-yl)-2-methyl-[1,2,4]triazolo[1,5-a]pyrazin-6-yl]cyclopropanecarboxamide] |
